# Test results from patent US20110158980A1, “METHODS TO TREAT AND SCREEN FOR AGENTS TO TREAT OBESITY” (TRUSTEES OF TUFTS COLLEGE, priority 2008, published 2011).
# How the values were obtained:
# 3T3-L1 adipocytes [1] = test: Metabolite assays (TG, FFA, glucose, lactate, glycerol) on cell lysates and spent medium; assay type: cell-based; settings: day 12 post-induction
# Procedure: 3T3-L1 preadipocytes were plated onto 24-well plates and expanded in preadipocyte growth medium consisting of DMEM supplemented with calf serum (10% v/v), penicillin and streptomycin. Medium was replenished every other day. Two days post-confluence, the cells were induced to differentiate using an adipogenic cocktail (1 μg/ml insulin, 0.5 mM isobutylmethylxanthine, and 1 μM dexamethasone) added to a basal medium (DMEM with 10% fetal bovine serum and penicillin/streptomycin). After 48 hrs, the first medium was replaced with a second induction medium consisting of the basal adipocyte medium supplemented with only insulin. […] This basal medium was replenished every other day during the remainder of the culture experiments.
# Metabolite measurements were performed both on cell lysates and spent medium samples as described previously (Si Y, Yoon J, Lee K. American journal of physiology 2007; 292:E1637-46). Cells were lysed in situ with an 0.1% SDS buffer and sonicated. Immediately after collection, the spent medium samples were cleaned of cell debris by a brief centrifugation step. Free glycerol, TG and free fatty acids (FFAs) were measured using enzymatic assay kits (SIGMA™). Glucose and lactate concentrations were measured using the methods of Trinder (Trinder P. J Clin Pathol 1969; 22:158-61) and Loomis (Loomis M E. J Lab Clin Med 1961; 57:966-9), respectively. Amino acids were quantified by HPLC using fluorescence-based detection following pre-column derivatization of primary or secondary amines with 6-aminoquinolyl-N-hydroxysuccinimidyl-carbamate (Cohen S A, De Antonis K M. J Chromatogr A 1994; 661:25-34). All metabolite data were normalized by the corresponding cell sample DNA content, which was determined with a fluorescence-based assay using the Hoechst dye.
# 3T3-L1 adipocytes [2] = test: Oxygen uptake rate by fiber-optic microsensor; assay type: cell-based; settings: phenylacetate at the higher concentration (10 mM); day 12 post-induction; FIG. 2F
# Procedure: The dissolved oxygen in the culture medium was measured using a needle-type fiber-optic microsensor (MicroxTX3, Presens, Regensburg, Germany). The concentration data were related to the oxygen uptake rate (OUR) using the following diffusion-reaction model:
# where c0 and hb are, respectively, the oxygen concentration at medium surface and height of the medium in the culture well. The bottom of the culture plate (and cell monolayer) is at z=−hb. Integrating equation (1) and applying the boundary conditions we obtain: […]
# where hm and cm are, respectively, the distance between the probe and the medium surface and the measured oxygen concentration in the medium at the probe depth. The oxygen uptake rate was calculated by dividing the flux JO2 by the cell density. The measured oxygen uptake rate was used for relative comparisons between the treatment groups and not used for MFA in order to independently confirm the calculated oxygen uptake rate.
structure (smiles),measurement,setting,value
O=C(O)Cc1ccccc1 [phenylacetate],Increase of glucose uptake,3T3-L1 adipocytes [1]; 5 mM phenylacetate,38%
same,Increase of glycerol output,3T3-L1 adipocytes [1]; 5 mM phenylacetate,1.2 fold
same,Increase of lactate output,3T3-L1 adipocytes [1]; 5 mM phenylacetate,more than 2 fold
same,Reduction of intracellular free fatty acid concentration,3T3-L1 adipocytes [1]; 5 mM phenylacetate,9%
same,Increase of glucose uptake,3T3-L1 adipocytes [1]; 10 mM phenylacetate,28%
same,Increase of glycerol output,3T3-L1 adipocytes [1]; 10 mM phenylacetate,1.4 fold
same,Increase of lactate output,3T3-L1 adipocytes [1]; 10 mM phenylacetate,more than 2 fold
same,Reduction of intracellular free fatty acid concentration,3T3-L1 adipocytes [1]; 10 mM phenylacetate,17%
same,Reduction of oxygen consumption,3T3-L1 adipocytes [2],25%
